Results taken from US20220233661A1, “METHOD OF DETERMINING ELIGIBILITY OF CANCER PATIENT FOR PEPTIDE VACCINE THERAPY” (priority 2019, published 2022).

Tests used:
[1] = tested on: anti-peptide IgG in plasma; assay: Test Example 4: peptide-specific IgG titer pre and post vaccination, bead-based multiplexed Luminex assay; format: in vivo, human; settings: for Pre-vaccination IgG Negative (number of patients) / Pre-vaccination IgG Positive (number of patients): cut off 10 FIU; for Post vaccination IgG: number of (positive) patients among vaccinated: positive IgG response; for Pre-vaccination IgG Negative patients: number of 2,588 patients below 10 FIU; for Pre-vaccination IgG Positive patients: number of 2,588 patients with ≥10 FIU; for Post vaccination IgG: (positive) patients: number of vaccinated patients with positive IgG response; for Correlation between immune responses and OS: Negative (mOS): patients with negative post-vaccination IgG response to the peptide; for Correlation between immune responses and OS: Positive (mOS): patients with positive post-vaccination IgG response to the peptide
Method: As described previously, IgG titer specific to the antigen peptides in plasma was measured by bead-based multiplexed Luminex assay (Luminex, Austin, Tex.) before and after vaccination, i.e., at the end of each cycle or at the end of the clinical trial (Non-Patent Literature 4). In brief, 30 mL of peripheral blood was obtained before and after vaccination. Plasma was incubated with 100 μL of peptide-coupled color-coded beads for 2 hours at 25° C. on a plate shaker. After the incubation, the resultant mixture was washed with a vacuum manifold apparatus and incubated with 100 μL of biotinylated goat anti-human IgG (gamma chain-specific; Vector Laboratories, Burlingame, Calif.) for 1 hour at 25° C. on a plate shaker. The plate was then washed, followed by addition of 100 μL of streptavidin-PE (Life Technologies) to each well, and incubation for 30 minutes at 25° C. on a plate shaker. The resultant beads were washed 4 times, followed by addition of 100 μL of Tween-PBS to each well, and detection of fluorescence intensity units (FIU) on the beads using the Luminex system. The cutoff values of anti-peptide IgG were set to 10 FIU in 100-fold diluted samples.
Pre-vaccination peptide-specific IgG titers to 31 peptides were measured using a Luminex system. As a detectable IgG level, 10 FIU was employed as the cut off level, as reported previously (Noguchi M, et al., Cancer Immunol Immunother. 2013 May; 62(5): 919-29; Sasada T, et al., Current Medicinal Chemistry. 21: 2332-2345, 2014; Kibe S, et al., Cancer Immunology Research 2014; 2(12): 1154-62).
Post-vaccination lgG titers were measured at the ends of the first cycle and the second cycle.

[2] = tested on: cancer patients; assay: Test Example 4: correlation between vaccination with individual peptides (or peptide sets) and OS, Cox proportional hazards regression; format: in vivo, human; settings: for HR: Cox proportional hazards regression, OS; for Correlation between immune responses and OS: Negative (mOS) / Correlation between immune responses and OS: Positive (mOS): Table 20, <64% neutrophil and ≥26% lymphocyte; for Correlation between immune responses and OS: Negative (mOS): vaccinated patients with negative IgG response; for Correlation between immune responses and OS: Positive (mOS): vaccinated patients with positive IgG response
Method: The Student's t-test and the chi-square test were used to compare quantitative and categorical variables, respectively. OS was calculated as the time in months from the date of clinical trial enrollment to death or to the date of last contact. Time-to-event endpoints were analyzed using the Kaplan-Meier method, and between-group comparison for OS was conducted using the log-rank test. Clinical efficacy of the individual peptides for OS was evaluated by univariate and multivariate analyses with the Cox proportional hazards regression model, and HR and 95% CI were calculated. All reported p-values were two-sided, and p-values less than 0.05 were considered significant. JMP version 12 or SAS version 9.4 software (SAS Institute Inc., Cary, N.C.) was used to perform all analyses.
Correlation levels of the 31 peptides for OS were evaluated by the Cox proportional hazards regression model.
Similarly, in the 2,085 advanced cancer patients (stage IV+recurrence) and the 503 non-advanced cancer patients (I-III stages) correlation levels of the 31 peptides for OS were evaluated by the Cox proportional hazards regression model. […]

[3] = Table 20, patients showing both <64% neutrophil and ≥26% lymphocyte
[4] = patients showing detectable levels
[5] = patients showing positive responses
[6] = 2,085 advanced cancer patients (stage IV+recurrence)
[7] = Table 18, all 2,588 cases, vaccinated vs non-vaccinated
[8] = Table 18, all 2,588 cases, median OS of patients under PPV containing the peptide
[9] = Table 18, all 2,588 cases, median OS of patients under PPV not containing the peptide
[10] = Table 19, 2,085 advanced cancer patients (stage IV+recurrence)
[11] = Table 19, 2,085 advanced cancer patients (stage IV+recurrence), PPV containing the peptide
[12] = Table 19, 2,085 advanced cancer patients (stage IV+recurrence), PPV not containing the peptide
[13] = Table 21, patients showing both <64% neutrophil and ≥26% lymphocyte
[14] = Table 21, patients showing both <64% neutrophil and ≥26% lymphocyte, PPV containing the peptide
[15] = Table 21, patients showing both <64% neutrophil and ≥26% lymphocyte, PPV not containing the peptide

Sequence	Post vaccination IgG Median (FIU) [1, 3]	Pre-vaccination IgG Median (FIU) [1, 3] [FIU]	Pre-vaccination IgG Negative (number of patients) [1, 3]	Pre-vaccination IgG Positive (number of patients) [1, 3]	Post vaccination IgG: number of (positive) patients among vaccinated [1, 3]	Pre-vaccination IgG Negative patients [1]	Pre-vaccination IgG Positive patients [1]	Post vaccination IgG: (positive) patients [1]	Pre-vaccination IgG Median (FIU) [1, 4] [FIU]	Post vaccination IgG Median (FIU) [1, 5]	Correlation between immune responses and OS: Negative (mOS) [1] [months]	Correlation between immune responses and OS: Positive (mOS) [1] [months]	HR [2, 7]	Vaccinate cases (mOS) [2, 8]	Non-vaccinate cases (mOS) [2, 9]	HR [2, 10]	Vaccinate cases (mOS) [2, 11]	Non-vaccinate cases (mOS) [2, 12]	Correlation between immune responses and OS: Negative (mOS) [2] [months]	Correlation between immune responses and OS: Positive (mOS) [2] [months]	other results
LYCESVHNF (listed as Homo sapiens) [PAP-213]	15,379 FIU	33	489	577	121(94)	1,166	1,422	279(196)	33	14,912 FIU	7.0	21.7	0.9	279(16.6) M	1271(11.4) M	0.8	228(14.9) M	1018(10.0) M	11.3	28.1	median OS of non-vaccinated cases [2, 6]: 10 months; median OS of vaccinated cases [2, 6]: 14.9 months; HR [2, 13]: 0.9; Vaccinate cases (mOS) [2, 14]: 121(23.7) M; Non-vaccinate cases (mOS) [2, 15]: 504(17.9) M
KLVERLGAA (listed as Homo sapiens) [Lck-246]	15,377 FIU	48	299	767	161(92)	773	1,815	366(169)	49	10,806 FIU	8.3	19.3	1.0	366(11.4) M	684(11.6) M	1.0	300(9.8) M	562(10.4) M	8.7	28.2	HR [2, 13]: 1.1; Vaccinate cases (mOS) [2, 14]: 161(15.4) M; Non-vaccinate cases (mOS) [2, 15]: 273(18.2) M
ILEQSGEWWK (listed as Homo sapiens) [Lck-90]	4,250 FIU	43	215	851	210(100)	501	2,087	502(187)	44	3,350 FIU	10.3	20.9	1.0	502(11.3) M	712(11.0) M	1.0	391(10.3) M	578(9.4) M	12	26.3	HR [2, 13]: 1.0; Vaccinate cases (mOS) [2, 14]: 210(17.8) M; Non-vaccinate cases (mOS) [2, 15]: 297(17.5) M
TFDYLRSVL (listed as Homo sapiens) [Lck-486]	17,613 FIU	40	167	899	356(274)	404	2,184	879(573)	42	15,147 FIU	7.2	19.4	0.9	879(12.3) M	671(11.3) M	0.9	709(11.1) M	537(9.6) M	11.4	25.2	median OS of non-vaccinated cases [2, 6]: 9.6 months; median OS of vaccinated cases [2, 6]: 11.1 months; HR [2, 13]: 0.9; Vaccinate cases (mOS) [2, 14]: 356(19.1) M; Non-vaccinate cases (mOS) [2, 15]: 269(17.6) M; median OS of vaccinated cases ([2]; all 2,588 cases, PPV containing the peptide): 12.3 months; median OS of non-vaccinated cases ([2]; all 2,588 cases, PPV not containing the peptide): 11.3 months
TYSVSFDSL (listed as Homo sapiens) [PSMA-624]	10,984 FIU	26	680	386	37(26)	1,638	950	101(50)	24	7,772 FIU	5.5	21.7	1.0	101(11.7) M	1,449(12.0) M	1.1	78(7.9) M	1168(10.7) M	21.2	24.4	HR [2, 13]: 0.9; Vaccinate cases (mOS) [2, 14]: 37(21.2) M; Non-vaccinate cases (mOS) [2, 15]: 588(18.0) M
NYSVRYRPGL (listed as Homo sapiens) [MRP3-1293]	6,491 FIU	27	423	643	132(83)	1,030	1,558	324(157)	27	6,003 FIU	8.6	20.6	1.1	324(11.9) M	1,226(12.1) M	1.0	253(10.5) M	993(10.4) M	12.6	24.3	HR [2, 13]: 1.0; Vaccinate cases (mOS) [2, 14]: 132(17.5) M; Non-vaccinate cases (mOS) [2, 15]: 493(18.4) M
